Source: patent US6479525B2, “Aspartate derivative of amlodipine” (Synthon BV, priority 2000, dated 2002)

System: isolated heart tissue
Assay: reduction of calcium-induced contraction of isolated heart tissue in vitro (calcium channel blocking activity)
Settings: degree of reduction of contraction of an isolated heart tissue induced by an addition of calcium ions in vitro

**Q.** `CCOC(=O)C1=C(COCCN[C@@H](CC(=O)O)C(=O)O)NC(C)=C(C(=O)OC)C1c1ccccc1Cl` (stereo partly shown) [Compound of formula (1), N-(2-{[4-(2-chlorophenyl)-3-(ethoxycarbonyl)-5-(methoxycarbonyl)-6-methyl-1,4-dihydro-2-pyridinyl]methoxy}ethyl)aspartic acid] was tested. Which “calcium channel blocking activity (ability to inhibit the movement of calcium into a cell)” value did it give?
**A.** has been shown
